Values of other authors as cited in patent publication US20180161299A1, “ESSENTIAL NUTRIENTS AND RELATED METHODS” (Balchem Corporation, priority 2016, published 2018).

Tests used:
[1] = pregnant women, choline intake increased from 480 mg to 930 mg

| choline excreted in the urine [1] | increase in the amount of B12 analogues present in the GI tract and in the circulation (large oral and systemic doses of B12) | vitamin B12 absorbed by diffusion from the gastrointestinal tract (large oral doses (500 μg to 5000 μg)) | vitamin B12 absorbed (typical oral vitamin B12 supplementations) | Compound |
| --- | --- | --- | --- | --- |
| little, if any |  |  |  | C[N+](C)(C)CCO [choline, N,N,N-trimethylethanolammonium cation] |
|  | more than 10 fold | less than 1% | less than 1% | cobalamin [Vitamin B12] |
